We go through 4 compounds from patent publication US7462598B2, “Antimicrobial theta defensins, analogs thereof, and methods of use” (priority 2002, dated 2008).

Bridge positions count the residues as written; N and C are the ends. Peptide text beside a SMILES is read from it.

Assay [1] has as its system E. coli ML35. The assay can be described thus: Cell-suspension microbicidal assay (MMC). Type of assay: cell-based, Escherichia coli. The conditions noted are these: lowest concentration that reduced cell viability by 99.9%; 10 mM PIPES, 5 mM glucose, pH 7.4; 2 h 37° C. On the procedure:
(§1) To test microbicidal activities, the activities of each peptide against S. aureus 502a, E. coli ML35, and C. albicans 16820 were assessed essentially as described in Example I with modifications to allow for simultaneous analysis of all twenty peptides. Briefly, two-fold serial dilutions of each peptide (in 0.01% acetic acid 0.062-8.0 μg/ml final concentrations) were mixed with 10 mM PIPES, pH 7.4, containing 5 mM glucose in sterile polystyrene 96-well plates (Corning, N.Y.). Aliquots of log-phase bacteria or yeast were added to a 2×10^6 CFU/ml final density as determined by A620. After 2 h incubation at 37° C., 15 μl of the incubation mixture was removed and serially diluted ten-fold from 1:10 to 1:10^6 in trypticase soy broth (bacteria) or Sabaraud dextrose broth (C. albicans). The diluted cell suspensions were grown 24-48 h at 37° C. until cell pellets were visible. Microbicidal activity was determined as absence of growth and was correlated to CFU/ml in control experiments where activity was determined in parallel by colony counting (see Example I). Absence of growth at the 1:10^3 dilution is equivalent to a 3-log reduction in microbial viability.
(§2) The microbicidal activities of each peptide against E. coli ML35, S. aureus 502a, and C. albicans 16820 were determined with cell-suspension microbicidal assays in 96-well plates (see Example II). Briefly, log-phase cells (2×10^6 CFU/ml final) were incubated with increasing concentrations of peptides (0-8 μg/ml final) in 50 μl of 10 mM PIPES, 5 mM glucose, pH 7.4, for 2 h at 37° C. Incubation mixtures were diluted 1:10 to 1:10^6 with trypticase-soy broth (bacteria) or Sabaraud dextrose broth (fungi) and incubated at 37° C. for 24-48 h until cell pellets were visible. Microbicidal activities (confirmed in control experiments as described in Example II) were determined as the absence of a cell pellet in the various dilutions. Peptide concentrations that caused ≧99.9% killing (absence of a cell pellet at 1:10^3 dilution) were taken as the minimum microbicidal concentrations (MMC).

Assay [2] deals with S. aureus 502a, E. coli ML35, and C. albicans 16820. The assay can be described thus: Cell-suspension microbicidal assay, statements across the test organisms (lowest MMC, overall ranges). Type of assay: cell-based. The conditions noted are these: peptide concentration that kill 99.9% of either S. aureus, E. coli, or C. albicans; lowest MMC value. On the procedure:
as §1, §2
A selectivity index (SI=H/M) was calculated as a ratio of a peptide concentration (μg/ml) that causes 3% hemolysis (H) obtained from a dose-dependent hemolysis plot over 0.3 to 3 μg/ml of each peptide in PBS and the lowest MMC value (M) for any of the three test microorganisms (see Example II; Table 2).

For another assay, the system named is C. albicans 16820. Briefly: Cell-suspension microbicidal assay (MMC). The assay is classed as cell-based, Candida albicans. The conditions noted are these: for MMC, C. albicans: lowest concentration that reduced cell viability by 99.9%, 10 mM PIPES, 5 mM glucose, pH 7.4, 2 h 37° C. On the procedure:
as §1, §2

Assay [3] deals with E. coli ML35. The assay can be described thus: Membrane permeabilization assay (ONPG hydrolysis). Particulars: rates at 1 μg/ml concentration of each peptide. The assay is classed as cell-based, Escherichia coli. On the procedure: For the membrane permeabilization assay, the permeabilization of bacterial cytoplasmic membranes was determined by measuring hydrolysis of o-nitrophenyl-β-D-galactcpyranoside (ONPG) in E. coli ML35 (Sitaram et al., FEBS Lett. 303:265-268 (1992); Lehrer et al.,. J. Immunol. Methods 108:153-158 (1988)). Peptides dissolved in 5 μl of 0.01% acetic acid were two-fold serially diluted with 10 mM PIPES, pH 7.4, containing 3 mM ONPG, to final peptide concentrations of 0-8.0 μg/ml. Log-phase bacteria, prepared in PIPES buffer as described for the microbicidal assay (see Example I), were added to 1×10^6 CFU/ml final density in a final volume of 90 μl. ONPG hydrolysis was measured at 405 nm for 60 min using a SpectraMAX 190 plate reader and SOFTmaxPRO 3.1 (Molecular Devices Corp., CA). […]

The test system of another assay is S. aureus 502a. The assay can be described thus: Cell-suspension microbicidal assay (MMC). The assay is classed as cell-based, Staphylococcus aureus. The conditions noted are these: for MMC, S. aureus: lowest concentration that reduced cell viability by 99.9%, 10 mM PIPES, 5 mM glucose, pH 7.4, 2 h 37° C. On the procedure:
as §1, §2

With `CC(C)[C@@H]1NC(=O)[C@@H]2CSSC[C@H](NC(=O)[C@H](CCCNC(=N)N)NC(=O)[C@@H](NC(=O)CNC(=O)CN)CSSC[C@@H](C(=O)N[C@@H](CCCNC(=N)N)C(=O)N[C@@H](CCCNC(=N)N)C(=O)O)NC1=O)C(=O)N[C@@H](Cc1ccc(O)cc1)C(=O)N[C@H]1CSSC[C@H](NC(=O)[C@H](Cc3ccccc3)NC(=O)[C@H](CCCNC(=N)N)NC(=O)[C@H](CCCNC(=N)N)NC(=O)[C@H](CCCNC(=N)N)NC1=O)C(=O)N[C@@H](C(C)C)C(=O)N2` [3cys 2:2 PG-1-OH] (H-GGCRCYCRRRFCVCVCRR-OH; disulfide 3-16, 5-14, 7-12; N-terminus assumed), the “MMC, E. coli” value in the assay on E. coli ML35 [1] was 1.0 µg/mL. In addition, the M in assay [2] amounted to 1 µg/mL. For the same compound, in the assay with C. albicans 16820 (from MMC, Table 2), the “fold lower candidacidal activity than 3cys 3:1 PG-1-OH” value is recorded as 2-4 fold. In addition, in the assay with C. albicans 16820, the “MMC, C. albicans” value is 4.0 µg/mL. Also, in the assay with E. coli ML35 [3], the ONPG hydrolysis is 13.0 (A405/sec) · 10^−5. For the same compound, the “fold lower staphylocidal activity than 3cys 3:1 PG-1-OH” value in the assay with S. aureus 502a (from MMC, Table 2) was 2-4 fold. Moreover, in the assay on S. aureus 502a, the “MMC, S. aureus” value turned out to be 2.0 µg/mL.

Take `CC(C)[C@@H]1NC(=O)[C@@H]2CSSC[C@H](NC(=O)[C@H](CCCNC(=N)N)NC(=O)[C@@H](NC(=O)CNC(=O)CNC(=O)[C@@H](N)CCCNC(=N)N)CSSC[C@@H](C(=O)N[C@@H](CCCNC(=N)N)C(N)=O)NC1=O)C(=O)N[C@@H](Cc1ccc(O)cc1)C(=O)N[C@H]1CSSC[C@H](NC(=O)[C@H](Cc3ccccc3)NC(=O)[C@H](CCCNC(=N)N)NC(=O)[C@H](CCCNC(=N)N)NC(=O)[C@H](CCCNC(=N)N)NC1=O)C(=O)N[C@@H](C(C)C)C(=O)N2` [3cys 3:1 PG-1-NH] (H-RGGCRCYCRRRFCVCVCR-NH2; disulfide 4-17, 6-15, 8-13; N-terminus assumed): the “MMC, E. coli” value with E. coli ML35 [1] came out at 1.5 µg/mL. In addition, the M in assay [2] was determined as 1.5 µg/mL. The “fold lower candidacidal potency than native PG-1” value in the assay with C. albicans 16820 (from MMC, Table 2) is reported as 5 fold. Moreover, in the assay on C. albicans 16820, the “MMC, C. albicans” value amounted to 4.0 µg/mL. Moreover, the ONPG hydrolysis with E. coli ML35 [3] was 12.3 (A405/sec) · 10^−5. In addition, in the assay with S. aureus 502a (from MMC, Table 2), the “fold lower staphylocidal potency than native PG-1” value turned out to be 5 fold. In addition, the “MMC, S. aureus” value in the assay on S. aureus 502a stood at 2.0 µg/mL.

Turning to `CC(C)[C@@H]1NC(=O)[C@@H]2CSSC[C@H](NC(=O)[C@H](CCCNC(=N)N)NC(=O)[C@@H](NC(=O)CNC(=O)CNC(=O)[C@@H](N)CCCNC(=N)N)CSSC[C@@H](C(=O)N[C@@H](CCCNC(=N)N)C(=O)O)NC1=O)C(=O)N[C@@H](Cc1ccc(O)cc1)C(=O)N[C@H]1CSSC[C@H](NC(=O)[C@H](Cc3ccccc3)NC(=O)[C@H](CCCNC(=N)N)NC(=O)[C@H](CCCNC(=N)N)NC(=O)[C@H](CCCNC(=N)N)NC1=O)C(=O)N[C@@H](C(C)C)C(=O)N2` [3cys 3:1 PG-1-OH] (H-RGGCRCYCRRRFCVCVCR-OH; disulfide 4-17, 6-15, 8-13; N-terminus assumed), the “MMC, E. coli” value in the assay on E. coli ML35 [1] is 1.5 µg/mL. The M in assay [2] worked out at 0.5 µg/mL. Besides, the “MMC, C. albicans” value in the assay on C. albicans 16820 was found to be 1.5 µg/mL. The ONPG hydrolysis in the assay with E. coli ML35 [3] is on record as 11.0 (A405/sec) · 10^−5. Also, the “MMC, S. aureus” value with S. aureus 502a worked out at 0.5 µg/mL.

Turning to `CC(C)C[C@H](NC(=O)[C@H](CCCNC(=N)N)NC(=O)CNC(=O)CN)C(=O)N[C@H]1CSSC[C@@H](C(=O)N[C@H](C(=O)NCC(=O)N[C@@H](CCCNC(=N)N)C(=O)N[C@@H](CCCNC(=N)N)C(=O)O)C(C)C)NC(=O)[C@H](C(C)C)NC(=O)[C@@H]2CSSC[C@H](NC(=O)[C@H](Cc3ccc(O)cc3)NC1=O)C(=O)N[C@@H](CCCNC(=N)N)C(=O)N[C@@H](CCCNC(=N)N)C(=O)N[C@@H](CCCNC(=N)N)C(=O)N[C@@H](Cc1ccccc1)C(=O)N2` [4:4 PG-1-OH] (H-GGRLCYCRRRFCVCVGRR-OH; disulfide 5-14, 7-12; N-terminus assumed), the “MMC, E. coli” value in the assay with E. coli ML35 [1] was found to be 1.0 µg/mL. The same compound returned a M in assay [2] of 1 µg/mL. For the same compound, the “MMC, C. albicans” value with C. albicans 16820 was determined as 2.5 µg/mL. Further, the ONPG hydrolysis in the assay with E. coli ML35 [3] is 12.1 (A405/sec) · 10^−5. The “MMC, S. aureus” value in the assay on S. aureus 502a was found to be 1.0 µg/mL.
